Reference: article PMC6757289, “Design and Characterization of SGK3-PROTAC1, an Isoform Specific SGK3 Kinase PROTAC Degrader” (ACS Chemical Biology, 2019)
Where two headings read alike, the source gives them in different places.

How the values were obtained:
Experiment in all cases: kinase profiling panel
Type in all cases: biochemical
Details in all cases: read-out: % Activity Remaining
CK1 delta = CK1 delta (Homo sapiens, UniProt P48730)
Text: (§1) Protein kinase profiling against a Dundee panel of 140 protein kinases was undertaken at the International Centre for Protein Kinase Profiling. The result for each kinase was presented as a mean kinase activity of the reaction taken in triplicate relative to a control sample treated with DMSO. Assay conditions and abbreviations are available at http://www.kinase-screen.mrc.ac.uk.

Aurora B = Aurora B (Homo sapiens, UniProt Q96GD4)
Text: as §1

MINK1 = MINK1 (Homo sapiens, UniProt Q8N4C8)
Text: as §1

DYRK3 = biological target: T1, DYRK3 (Homo sapiens, UniProt O43781)
T1 sequence (O43781 1-588): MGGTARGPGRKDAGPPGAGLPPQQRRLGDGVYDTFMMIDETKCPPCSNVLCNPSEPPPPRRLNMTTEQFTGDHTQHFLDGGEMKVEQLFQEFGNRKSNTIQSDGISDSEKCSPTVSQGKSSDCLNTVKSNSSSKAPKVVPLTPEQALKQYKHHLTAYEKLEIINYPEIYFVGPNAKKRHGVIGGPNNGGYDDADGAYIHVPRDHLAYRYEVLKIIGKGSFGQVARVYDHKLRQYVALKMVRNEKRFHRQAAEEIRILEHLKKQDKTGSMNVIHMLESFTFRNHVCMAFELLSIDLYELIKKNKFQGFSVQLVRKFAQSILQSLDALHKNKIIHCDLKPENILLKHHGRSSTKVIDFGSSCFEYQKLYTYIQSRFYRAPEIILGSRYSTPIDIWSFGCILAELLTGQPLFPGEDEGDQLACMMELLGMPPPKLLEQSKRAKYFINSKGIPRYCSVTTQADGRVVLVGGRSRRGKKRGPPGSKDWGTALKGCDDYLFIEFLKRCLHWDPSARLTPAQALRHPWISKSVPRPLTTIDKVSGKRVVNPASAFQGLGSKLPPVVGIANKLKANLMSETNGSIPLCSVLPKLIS
Text: as §1

RSK1 = RSK1 (Homo sapiens, UniProt Q15418)
Text: as §1

TSSK1 = biological target: T2, TSSK1 (Homo sapiens, UniProt Q9BXA7)
T2 sequence (Q9BXA7 1-367): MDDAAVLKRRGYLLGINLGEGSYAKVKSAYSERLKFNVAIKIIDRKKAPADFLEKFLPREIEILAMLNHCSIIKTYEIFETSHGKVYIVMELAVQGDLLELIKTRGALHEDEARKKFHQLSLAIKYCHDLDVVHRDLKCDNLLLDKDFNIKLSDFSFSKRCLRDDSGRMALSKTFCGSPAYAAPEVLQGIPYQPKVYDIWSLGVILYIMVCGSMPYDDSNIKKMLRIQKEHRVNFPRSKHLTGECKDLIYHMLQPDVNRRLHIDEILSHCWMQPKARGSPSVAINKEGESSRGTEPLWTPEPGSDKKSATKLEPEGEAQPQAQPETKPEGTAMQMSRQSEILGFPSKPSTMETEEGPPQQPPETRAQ
Text: as §1

JNK1 = JNK1 (Homo sapiens, UniProt P45983)
Text: as §1

MEKK1 = MEKK1 (Homo sapiens, UniProt Q13233)
Text: as §1

PAK6 = PAK6 (Homo sapiens, UniProt Q9NQU5)
Text: as §1

EPH-B4 = biological target: T3, EPH-B4 (Homo sapiens, UniProt P54760)
T3 sequence (P54760 16-987): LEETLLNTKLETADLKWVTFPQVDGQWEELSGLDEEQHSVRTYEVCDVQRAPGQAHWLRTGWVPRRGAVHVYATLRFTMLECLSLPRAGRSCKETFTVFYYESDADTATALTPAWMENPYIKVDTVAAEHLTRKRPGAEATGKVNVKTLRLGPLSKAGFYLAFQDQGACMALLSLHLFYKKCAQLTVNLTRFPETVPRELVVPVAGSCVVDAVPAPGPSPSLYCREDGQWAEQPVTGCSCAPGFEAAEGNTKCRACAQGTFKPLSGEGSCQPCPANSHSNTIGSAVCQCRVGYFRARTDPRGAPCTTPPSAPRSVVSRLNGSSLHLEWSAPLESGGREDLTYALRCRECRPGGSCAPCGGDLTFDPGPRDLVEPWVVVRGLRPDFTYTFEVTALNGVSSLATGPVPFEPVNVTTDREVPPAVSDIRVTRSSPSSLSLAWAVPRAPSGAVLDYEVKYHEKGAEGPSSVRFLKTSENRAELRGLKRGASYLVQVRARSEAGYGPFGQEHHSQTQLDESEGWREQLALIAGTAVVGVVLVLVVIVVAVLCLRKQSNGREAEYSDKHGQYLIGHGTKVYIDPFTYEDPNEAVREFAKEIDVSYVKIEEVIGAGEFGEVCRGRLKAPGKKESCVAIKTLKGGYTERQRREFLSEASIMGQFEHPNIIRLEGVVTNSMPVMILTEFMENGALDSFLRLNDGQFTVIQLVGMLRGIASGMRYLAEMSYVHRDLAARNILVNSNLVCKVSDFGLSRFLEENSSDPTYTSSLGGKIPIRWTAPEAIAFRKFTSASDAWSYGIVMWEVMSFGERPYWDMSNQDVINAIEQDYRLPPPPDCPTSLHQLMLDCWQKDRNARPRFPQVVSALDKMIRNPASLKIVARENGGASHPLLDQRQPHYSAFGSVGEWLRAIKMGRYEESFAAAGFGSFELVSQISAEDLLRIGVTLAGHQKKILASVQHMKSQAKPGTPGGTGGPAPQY
Text: as §1

CAMK1 = CAMK1 (Homo sapiens, UniProt Q14012)
Text: as §1

MEKK1, sequence (Q13233 whole entry): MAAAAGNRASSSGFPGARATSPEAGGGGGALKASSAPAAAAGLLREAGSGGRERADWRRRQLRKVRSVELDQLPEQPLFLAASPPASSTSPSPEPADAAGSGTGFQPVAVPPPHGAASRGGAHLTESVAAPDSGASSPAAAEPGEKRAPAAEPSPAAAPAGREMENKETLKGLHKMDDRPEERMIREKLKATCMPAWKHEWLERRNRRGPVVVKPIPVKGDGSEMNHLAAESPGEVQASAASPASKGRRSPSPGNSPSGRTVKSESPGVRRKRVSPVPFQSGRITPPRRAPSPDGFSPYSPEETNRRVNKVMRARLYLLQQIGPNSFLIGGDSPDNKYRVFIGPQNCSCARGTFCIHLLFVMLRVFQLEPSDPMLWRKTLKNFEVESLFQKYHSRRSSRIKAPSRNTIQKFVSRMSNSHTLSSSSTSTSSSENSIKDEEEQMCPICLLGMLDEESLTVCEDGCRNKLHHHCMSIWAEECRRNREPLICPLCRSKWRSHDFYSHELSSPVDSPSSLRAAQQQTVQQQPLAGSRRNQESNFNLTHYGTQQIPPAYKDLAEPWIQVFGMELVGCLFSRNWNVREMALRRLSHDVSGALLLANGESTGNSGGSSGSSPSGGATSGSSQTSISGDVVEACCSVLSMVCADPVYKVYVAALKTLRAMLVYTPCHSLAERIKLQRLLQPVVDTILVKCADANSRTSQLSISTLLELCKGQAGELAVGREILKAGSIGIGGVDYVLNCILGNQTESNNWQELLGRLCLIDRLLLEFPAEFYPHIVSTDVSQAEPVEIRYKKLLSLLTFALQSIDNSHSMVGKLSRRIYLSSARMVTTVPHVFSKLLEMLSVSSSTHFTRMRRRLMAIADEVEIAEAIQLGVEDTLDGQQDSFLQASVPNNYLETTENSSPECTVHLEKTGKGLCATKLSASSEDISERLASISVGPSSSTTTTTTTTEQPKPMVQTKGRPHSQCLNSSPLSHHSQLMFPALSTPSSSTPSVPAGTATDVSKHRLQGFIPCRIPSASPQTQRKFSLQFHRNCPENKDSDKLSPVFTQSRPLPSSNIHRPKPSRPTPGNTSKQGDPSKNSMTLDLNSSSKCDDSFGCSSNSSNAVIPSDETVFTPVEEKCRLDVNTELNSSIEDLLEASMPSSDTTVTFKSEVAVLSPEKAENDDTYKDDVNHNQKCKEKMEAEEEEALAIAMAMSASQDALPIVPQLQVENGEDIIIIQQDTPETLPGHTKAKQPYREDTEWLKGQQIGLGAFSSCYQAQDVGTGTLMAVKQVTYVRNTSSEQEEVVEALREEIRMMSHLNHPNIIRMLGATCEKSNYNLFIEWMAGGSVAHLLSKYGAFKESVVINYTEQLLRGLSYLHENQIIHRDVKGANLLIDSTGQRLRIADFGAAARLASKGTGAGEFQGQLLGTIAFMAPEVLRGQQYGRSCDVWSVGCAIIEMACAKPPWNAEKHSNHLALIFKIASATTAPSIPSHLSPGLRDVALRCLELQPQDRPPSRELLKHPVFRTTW
PAK6, sequence (Q9NQU5 whole entry): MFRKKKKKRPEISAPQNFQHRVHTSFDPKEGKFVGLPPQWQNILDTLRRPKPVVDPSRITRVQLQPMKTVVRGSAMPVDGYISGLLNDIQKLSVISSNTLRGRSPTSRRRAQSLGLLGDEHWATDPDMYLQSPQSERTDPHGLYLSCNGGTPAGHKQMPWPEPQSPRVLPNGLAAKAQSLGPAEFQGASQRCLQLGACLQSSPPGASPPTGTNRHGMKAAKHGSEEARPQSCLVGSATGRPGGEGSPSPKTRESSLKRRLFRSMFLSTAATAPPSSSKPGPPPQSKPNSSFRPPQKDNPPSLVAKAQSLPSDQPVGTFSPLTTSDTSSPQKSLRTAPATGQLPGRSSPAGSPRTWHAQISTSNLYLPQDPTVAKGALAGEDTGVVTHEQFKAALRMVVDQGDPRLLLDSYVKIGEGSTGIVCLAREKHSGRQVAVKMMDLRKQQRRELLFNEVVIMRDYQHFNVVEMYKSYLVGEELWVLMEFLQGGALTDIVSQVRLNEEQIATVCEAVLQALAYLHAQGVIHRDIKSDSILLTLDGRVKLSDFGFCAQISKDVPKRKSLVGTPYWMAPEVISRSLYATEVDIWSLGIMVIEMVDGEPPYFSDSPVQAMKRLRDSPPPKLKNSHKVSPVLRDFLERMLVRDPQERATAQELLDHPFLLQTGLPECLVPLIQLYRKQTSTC
RSK1, sequence (Q15418 whole entry): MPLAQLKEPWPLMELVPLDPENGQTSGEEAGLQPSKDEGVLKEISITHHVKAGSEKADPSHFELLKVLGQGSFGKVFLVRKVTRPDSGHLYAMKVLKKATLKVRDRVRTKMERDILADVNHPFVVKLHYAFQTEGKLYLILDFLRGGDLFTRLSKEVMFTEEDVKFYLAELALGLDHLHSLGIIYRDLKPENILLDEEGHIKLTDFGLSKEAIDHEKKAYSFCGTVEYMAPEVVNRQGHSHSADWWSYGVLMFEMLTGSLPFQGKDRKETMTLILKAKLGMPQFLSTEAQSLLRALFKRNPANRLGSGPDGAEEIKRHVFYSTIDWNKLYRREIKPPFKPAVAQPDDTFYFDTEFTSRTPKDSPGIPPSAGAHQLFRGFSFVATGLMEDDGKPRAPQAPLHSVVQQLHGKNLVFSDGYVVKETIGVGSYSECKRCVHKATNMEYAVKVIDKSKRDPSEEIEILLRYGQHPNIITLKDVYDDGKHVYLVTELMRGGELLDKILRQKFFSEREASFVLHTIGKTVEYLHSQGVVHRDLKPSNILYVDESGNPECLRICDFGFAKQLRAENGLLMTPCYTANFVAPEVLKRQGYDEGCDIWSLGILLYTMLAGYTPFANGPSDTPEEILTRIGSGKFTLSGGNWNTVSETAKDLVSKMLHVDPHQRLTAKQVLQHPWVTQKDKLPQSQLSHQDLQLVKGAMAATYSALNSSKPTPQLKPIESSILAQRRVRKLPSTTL
Aurora B, sequence (Q96GD4 whole entry): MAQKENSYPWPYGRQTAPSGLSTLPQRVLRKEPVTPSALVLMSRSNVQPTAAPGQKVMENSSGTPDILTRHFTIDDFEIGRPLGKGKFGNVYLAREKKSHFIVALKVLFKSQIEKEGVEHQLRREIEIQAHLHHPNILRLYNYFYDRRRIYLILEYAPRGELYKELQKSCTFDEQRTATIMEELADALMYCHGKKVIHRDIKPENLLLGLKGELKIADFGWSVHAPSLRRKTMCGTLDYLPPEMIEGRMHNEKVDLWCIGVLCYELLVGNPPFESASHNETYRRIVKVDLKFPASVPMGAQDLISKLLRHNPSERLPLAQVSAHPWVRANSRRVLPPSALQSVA
MINK1, sequence (Q8N4C8 whole entry): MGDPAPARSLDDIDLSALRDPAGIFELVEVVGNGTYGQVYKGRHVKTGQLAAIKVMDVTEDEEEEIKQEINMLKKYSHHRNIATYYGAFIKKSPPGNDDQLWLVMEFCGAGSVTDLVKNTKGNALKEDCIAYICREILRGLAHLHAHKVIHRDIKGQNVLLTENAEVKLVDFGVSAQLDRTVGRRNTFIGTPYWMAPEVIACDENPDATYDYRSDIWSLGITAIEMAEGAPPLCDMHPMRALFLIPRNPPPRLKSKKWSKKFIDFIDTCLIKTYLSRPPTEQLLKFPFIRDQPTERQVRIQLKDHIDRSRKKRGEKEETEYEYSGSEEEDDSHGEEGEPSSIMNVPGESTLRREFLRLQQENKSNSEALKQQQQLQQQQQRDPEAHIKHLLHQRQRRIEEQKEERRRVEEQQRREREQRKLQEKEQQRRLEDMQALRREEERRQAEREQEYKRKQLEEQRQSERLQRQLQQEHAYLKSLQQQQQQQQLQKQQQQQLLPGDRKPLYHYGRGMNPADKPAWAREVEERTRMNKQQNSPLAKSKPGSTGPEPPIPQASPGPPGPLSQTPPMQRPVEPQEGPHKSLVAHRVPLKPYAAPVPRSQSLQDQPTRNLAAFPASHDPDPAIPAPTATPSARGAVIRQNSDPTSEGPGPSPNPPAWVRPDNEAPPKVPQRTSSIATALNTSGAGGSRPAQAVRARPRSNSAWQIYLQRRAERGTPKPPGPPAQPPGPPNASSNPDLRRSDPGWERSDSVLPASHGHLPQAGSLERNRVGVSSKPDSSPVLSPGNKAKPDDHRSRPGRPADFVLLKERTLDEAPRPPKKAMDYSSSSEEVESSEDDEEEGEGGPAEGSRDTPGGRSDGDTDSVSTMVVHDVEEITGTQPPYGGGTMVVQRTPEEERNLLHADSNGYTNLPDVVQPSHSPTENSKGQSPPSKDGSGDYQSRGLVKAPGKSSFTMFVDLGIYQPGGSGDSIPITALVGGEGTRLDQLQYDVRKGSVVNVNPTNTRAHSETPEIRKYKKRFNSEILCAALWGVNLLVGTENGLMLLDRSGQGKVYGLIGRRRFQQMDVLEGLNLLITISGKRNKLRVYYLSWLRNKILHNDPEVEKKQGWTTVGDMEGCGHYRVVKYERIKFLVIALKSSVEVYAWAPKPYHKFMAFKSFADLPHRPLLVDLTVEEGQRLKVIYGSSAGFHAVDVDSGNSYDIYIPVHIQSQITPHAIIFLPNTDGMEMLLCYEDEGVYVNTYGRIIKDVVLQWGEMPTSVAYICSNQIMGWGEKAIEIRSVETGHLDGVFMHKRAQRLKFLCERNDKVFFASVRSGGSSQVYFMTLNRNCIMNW
CK1 delta, sequence (P48730 whole entry): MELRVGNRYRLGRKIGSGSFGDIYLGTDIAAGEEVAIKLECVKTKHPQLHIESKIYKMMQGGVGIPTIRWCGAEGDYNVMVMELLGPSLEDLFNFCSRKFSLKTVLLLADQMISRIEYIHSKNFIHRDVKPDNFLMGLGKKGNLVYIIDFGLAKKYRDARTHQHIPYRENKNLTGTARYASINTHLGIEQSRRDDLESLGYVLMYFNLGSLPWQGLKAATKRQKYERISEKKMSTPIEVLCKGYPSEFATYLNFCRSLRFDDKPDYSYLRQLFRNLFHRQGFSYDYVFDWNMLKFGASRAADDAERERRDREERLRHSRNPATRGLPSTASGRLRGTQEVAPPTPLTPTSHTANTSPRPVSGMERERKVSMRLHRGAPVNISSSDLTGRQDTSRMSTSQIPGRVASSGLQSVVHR

In the case of `Cc1ccc(F)c(S(=O)(=O)Nc2ccc(-c3nc(OC[C@H]4CN(CCCCCCOCCOCCOCC(=O)N[C@H](C(=O)N5C[C@H](O)C[C@H]5C(=O)NCc5ccc(-c6scnc6C)cc5)C(C)(C)C)CCO4)c4cn[nH]c4n3)cc2)c1` [SGK3-PROTAC1], the remaining activity at 1 µM (CK1 delta; 1 µM) is reported as 95%, the remaining activity at 1 µM (Aurora B; 1 µM) is reported as 93% and the remaining activity at 1 µM (MINK1; 1 µM) is reported as 115%. It also gave a remaining activity at 1 µM (DYRK3; 1 µM) of 102%, a remaining activity at 1 µM (RSK1; 1 µM) of 83% and a remaining activity at 1 µM (TSSK1; 1 µM) of 115%. The remaining activity at 1 µM (JNK1; 1 µM) was 117%, the remaining activity at 1 µM (MEKK1; 1 µM) was 124% and the remaining activity at 1 µM (PAK6; 1 µM) was 98%. For the same molecule, the remaining activity at 1 µM (EPH-B4; 1 µM) was 107% and the remaining activity at 1 µM (CAMK1; 1 µM) was 86%.

`COc1ccc(Cl)c(S(=O)(=O)Nc2ccc(-c3nc(OC[C@H]4CNCCO4)c4c(C)n[nH]c4n3)cc2)c1` [290-R, reference compound] gave a remaining activity at 1 µM (CK1 delta) of 65%, a remaining activity at 1 µM (Aurora B) of 70% and a remaining activity at 1 µM (MINK1) of 101%. For the same molecule, the remaining activity at 1 µM (DYRK3) was 89%, the remaining activity at 1 µM (RSK1) was 7% and the remaining activity at 1 µM (TSSK1) was 98%. For the same molecule, the remaining activity at 1 µM (JNK1) was 101%, the remaining activity at 1 µM (MEKK1) was 112% and the remaining activity at 1 µM (PAK6) was 94%. It also gave a remaining activity at 1 µM (EPH-B4) of 103% and a remaining activity at 1 µM (CAMK1) of 3%.

With `Cc1ccc(F)c(S(=O)(=O)Nc2ccc(-c3nc(OC[C@H]4CN(CCCCCCOCCOCCOCC(=O)N[C@H](C(=O)N5C[C@@H](O)C[C@H]5C(=O)NCc5ccc(-c6scnc6C)cc5)C(C)(C)C)CCO4)c4cn[nH]c4n3)cc2)c1` [cisSGK3-PROTAC1] the remaining activity at 1 µM (CK1 delta; 1 µM) was 108%, the remaining activity at 1 µM (Aurora B; 1 µM) was 95% and the remaining activity at 1 µM (MINK1; 1 µM) was 116%. It also gave a remaining activity at 1 µM (DYRK3; 1 µM) of 104%, a remaining activity at 1 µM (RSK1; 1 µM) of 90% and a remaining activity at 1 µM (TSSK1; 1 µM) of 113%. The remaining activity at 1 µM (JNK1; 1 µM) was 119%, the remaining activity at 1 µM (MEKK1; 1 µM) was 128% and the remaining activity at 1 µM (PAK6; 1 µM) was 99%. The remaining activity at 1 µM (EPH-B4; 1 µM) was 108% and the remaining activity at 1 µM (CAMK1; 1 µM) was 105%.

In the case of `Cc1ccc(F)c(S(=O)(=O)Nc2ccc(-c3nc(OC[C@H]4CNCCO4)c4cn[nH]c4n3)cc2)c1` [308-R, reference compound], the remaining activity at 1 µM (CK1 delta) is reported as 121%, the remaining activity at 1 µM (Aurora B) is reported as 115% and the remaining activity at 1 µM (MINK1) is reported as 83%. It also gave a remaining activity at 1 µM (DYRK3) of 99%, a remaining activity at 1 µM (RSK1) of 7% and a remaining activity at 1 µM (TSSK1) of 94%. The remaining activity at 1 µM (JNK1) was 112%, the remaining activity at 1 µM (MEKK1) was 115% and the remaining activity at 1 µM (PAK6) was 80%. It also gave a remaining activity at 1 µM (EPH-B4) of 124% and a remaining activity at 1 µM (CAMK1) of 22%.
